Columns and labels:
Assay type in all cases: functional
NCI-H226 = experiment: Cytotoxicity against Homo sapiens (human) NCI-H226 cells after 48 hr by SRB assay; details: NCI-H226, 48 h
MDA-MB-231 = experiment: Cytotoxicity against Homo sapiens (human) MDA-MB-231 cells after 48 hr by SRB assay; details: MDA-MB-231, 48 h
HCT-116 = experiment: Cytotoxicity against Homo sapiens (human) HCT116 cells after 48 hr by SRB assay; details: HCT-116, 48 h
TK-10 = experiment: Cytotoxicity against Homo sapiens (human) TK10 cells after 48 hr by SRB assay; details: TK-10, 48 h
SNB-75 = experiment: Cytotoxicity against Homo sapiens (human) SNB75 cells after 48 hr by SRB assay; details: SNB-75, 48 h
[1] = Cytotoxicity against Homo sapiens (human) non-small cell lung cancer cells after 48 hr by SRB assay; details: Cancer cell lines
A549 = experiment: Cytotoxicity against Homo sapiens (human) A549 cells after 48 hr by SRB assay; details: A549, 48 h
LOX IMVI = experiment: Cytotoxicity against Homo sapiens (human) LOXIMVI cells after 48 hr by SRB assay
[2] = Cytotoxicity against Homo sapiens (human) colon cancer cells after 48 hr by SRB assay; details: Cancer cell lines
M14 = experiment: Cytotoxicity against Homo sapiens (human) M14 cells after 48 hr by SRB assay; details: M14, 48 h
OVCAR-3 = experiment: Cytotoxicity against Homo sapiens (human) OVCAR3 cells after 48 hr by SRB assay; details: OVCAR-3, 48 h
PC-3 = experiment: Cytotoxicity against Homo sapiens (human) PC3 cells after 48 hr by SRB assay; details: PC-3, 48 h
IGROV-1 = experiment: Cytotoxicity against Homo sapiens (human) IGROV1 cells after 48 hr by SRB assay; details: IGROV-1, 48 h
HCC 2998 = experiment: Cytotoxicity against Homo sapiens (human) HCC2998 cells after 48 hr by SRB assay; details: HCC 2998, 48 h
[3] = Cytotoxicity against Homo sapiens (human) prostate cancer cells after 48 hr by SRB assay; details: Cancer cell lines
U-251 = experiment: Cytotoxicity against Homo sapiens (human) U251 cells after 48 hr by SRB assay; details: U-251, 48 h
NCI-H23 = experiment: Cytotoxicity against Homo sapiens (human) NCI-H23 cells after 48 hr by SRB assay; details: NCI-H23, 48 h
K562 = experiment: Cytotoxicity against Homo sapiens (human) K562 cells after 48 hr by SRB assay; details: K562, 48 h
MOLT-4 = experiment: Cytotoxicity against Homo sapiens (human) MOLT4 cells after 48 hr by SRB assay; details: MOLT-4, 48 h
SK-MEL-5 = experiment: Cytotoxicity against Homo sapiens (human) SK-MEL-5 cells after 48 hr by SRB assay; details: SK-MEL-5, 48 h

Row | Structure (SMILES) | GI50 (MDA-MB-231) [µM] | GI50 (HCT-116) [µM] | GI50 (TK-10) [µM] | GI50 (SNB-75) [µM] | GI50 [1] [µM] | TGI [1] [µM] | GI50 (A549) [µM] | GI50 (LOX IMVI) [µM] | GI50 [2] [µM] | TGI [2] [µM] | GI50 (M14) [µM] | GI50 (OVCAR-3) [µM] | GI50 (PC-3) [µM] | GI50 (IGROV-1) [µM] | GI50 (HCC 2998) [µM] | GI50 [3] [µM] | TGI [3] [µM] | GI50 (U-251) [µM] | GI50 (NCI-H23) [µM] | GI50 (K562) [µM] | other results
1 | NS(=O)(=O)c1ccc(-n2nc3c(c2-c2cccs2)Cc2ccccc2-3)cc1 | 17.3 | 7.67 | 12.2 | 25.5 | 21.7 | 31.3 | 20.7 | 6.58 | 14.9 | 37.2 | 17.2 | 14.4 | 20.6 | 2.49 | 12.8 | 22.3 | 22.3 | 12.3 | 11.9 | 0.86 | GI50 (NCI-H226): 4.9 µM; GI50 (MOLT-4): 1.43 µM; GI50 (SK-MEL-5): 10.5 µM
2 | NS(=O)(=O)c1ccc(N2N=C3c4ccccc4CC3C2c2cccs2)cc1 (configuration not stated) | 16.8 | 10.7 | 13.2 | 31.1 | 29.6 | 45.5 | 13.1 | 19.1 | 28 | 74.5 | 26 | 24.8 | 22.1 | 30 | 14.8 | 18.3 | 48.6 | 19.4 | 20.3 | 57.5 | GI50 (MOLT-4): 18.9 µM; GI50 (SK-MEL-5): 18 µM
3 | O=C(Nc1ccccc1)NS(=O)(=O)c1ccc(N2N=C3c4ccccc4CC3C2c2cccnc2)cc1 (configuration not stated) | 19.8 | 15.3 | 11.7 | > 100 | 30 | 56.4 | 29.2 | 15.4 | 26.2 | 78.7 | 24.9 | 21.6 | 36.2 | 16.2 | 17.3 | 36.4 | 52.1 | 31.9 | 20.8 | 26.6 | GI50 (NCI-H226): 23.7 µM; GI50 (MOLT-4): 11.6 µM; GI50 (SK-MEL-5): 23.6 µM
4 | O=C(NC1CCCCC1)NS(=O)(=O)c1ccc(-n2nc3c(c2-c2cccs2)Cc2ccccc2-3)cc1 | 27.9 | 31.6 | 17.5 | 52.2 | 38.7 | 46.7 | 28 | 5.66 | 24.2 | 73.3 | 64.1 | 24.5 | 14.5 | 4.12 | 6.63 | 23.2 | 34.7 | 25.6 | 12.8 | 10 | GI50 (NCI-H226): 21.3 µM; GI50 (MOLT-4): 49.9 µM; GI50 (SK-MEL-5): 18.7 µM
5 | O=C(Nc1ccccc1)NS(=O)(=O)c1ccc(-n2nc3c(c2-c2cccs2)Cc2ccccc2-3)cc1 | 15.3 | 9.13 | 4.99 | 70.4 | 18.2 | 74.4 | 20.8 | 12 | 20.4 | 37.2 | 25 | 21.8 | 10.4 | 21.4 | 15.3 | 19.5 | 98.1 | 22.9 | 12.2 | 14 | GI50 (NCI-H226): 19.2 µM; GI50 (MOLT-4): 15.5 µM; GI50 (SK-MEL-5): 15.6 µM
6 | O=S(=O)(NC(=S)Nc1ccccc1)c1ccc(N2N=C3c4ccccc4CC3C2c2cccs2)cc1 (configuration not stated) | 24.8 | 15.1 | 12.2 | 71.9 | 30.5 | 48.4 | 15.7 | 24.4 | 25.9 | 75.9 | 22.7 | 17.2 | 22.9 | 65.3 | 13.9 | 20.3 | 47.9 | 26.2 | 17.6 | 31.3 | GI50 (NCI-H226): 27.2 µM; GI50 (MOLT-4): 17.5 µM; GI50 (SK-MEL-5): 20.8 µM

— ChEMBL document CHEMBL3046832, “Synthesis of some sulfonamides, disubstituted sulfonylureas or thioureas and some structurally related variants. A class of promising antitumor agents” (2007)
